{
  "source": "patent US10781431B2",
  "about": "“Cardiotonic steroid antagonists and related methods” (MARSHALL UNIVERSITY RESEARCH CORPORTION, priority 2014, dated 2020)",
  "key": {"Na/K-ATPase α1": {"target": "T1, Na/K-ATPase α1 (Sus scrofa, UniProt P05024)", "T1 construct": "in normal LLC-PK1 cells, tyrosine 260 of full length Na/K-ATPase was phosphorylated; endogenous in cells; host or cells: LLC-PK1", "test": "tyrosine 260 phosphorylation of Na/K-ATPase, Western blot", "type": "cell-based", "settings": "LLC-PK1 cells, 100 nM ouabain, FIG. 4C", "method": "FIGS. 4A-4C include a schematic diagram and images relating to the phosphorylation of Y260 in CD2, FIG. 4A is a schematic diagram showing CD2 sequence from Na/K-ATPase α1 subunit with the tentative Src SH2 domain binding region surrounding Y260 marked in a box (SEQ ID NO: 10). FIG. 4B is an image showing the results of an experiment where five hundred μg of total cell lysate was immunoprecipitated with 10 μg anti-Src antibody and immunoprecipitates were subjected to Western blot analysis of tyrosine 260 phosphorylation using an anti-phosphotyrosine 260 Na/K-ATPase α1 antibody, and where the same membrane was stripped and probed for YFP. FIG. 4C includes images showing the results of an experiment where LLC-PK1 cells were grown up to 100% confluence and then serum starved overnight and treated with 100 nM ouabain for the indicated times and then western blotted by probing for pY260 α1 Na/K-ATPase and a 1 Na/K-ATPase, […] Src and total Src.\nIn view of the foregoing findings, experiments were then undertaken to develop a highly specific peptide antagonist for disrupting the CD2/SH2 interaction in order to inhibit the cardiotonic steroid-mediated signaling, in cells. […] As depicted in FIG. 4B, CD2 was capable of being phosphorylated when it was expressed in cells."}, "[1]": {"settings": "reconstituted in vitro system; previously demonstrated (PCT/US2011/021130); cited from earlier work"}},
  "note": "No end group written: not given here.",
  "data": [
    {"molecule": "C[C@@H]1O[C@@H](O[C@H]2C[C@@H](O)[C@]3(CO)[C@H]4[C@H](O)C[C@]5(C)[C@@H](C6=CC(=O)OC6)CC[C@]5(O)[C@@H]4CC[C@]3(O)C2)[C@H](O)[C@H](O)[C@H]1O", "note": "[ouabain]", "values": [
      {"measurement": "phosphorylation of tyrosine 260 of full length Na/K-ATPase", "setting": "Na/K-ATPase α1", "result": "increased the phosphorylation in a time-dependent manner"}
    ]},
    {"molecule": "CD2C2: peptide derived from CD2, non-phosphorylated; SEQ ID NO: 1 in PCT/US2011/021130 (STNCVEGTARGIVVYTGD; not fully specified (residue 15); listed as Homo sapiens)", "values": [
      {"measurement": "ouabain antagonism", "setting": "[1]", "result": "effective ouabain antagonist"}
    ]}
  ]
}
